Drawing on article PMC5672842 (Chemical Science, 2017), this text covers Ki for four compounds.

Read-outs that look alike come from different tables or passages of the source.

Assay [1] deals with β-Glucosidase (P. chrysosp.) (Phanerodontia chrysosporium, UniProt O74203). Kind of assay: 4-nitrophenyl β-D-glucopyranoside hydrolysis, absorbance […] nm. The settings on record: pH 6.0, 37 °C, phosphate buffer, 10% DMSO. The class given is biochemical.
The target in assay [2] is β-Glucosidase (A. oryzae). The description is as above. In kind it is biochemical, Aspergillus oryzae. The settings on record: read-out: 19; pH 6.0, 37 °C, phosphate buffer, 10% DMSO.
The target in the next assay is T1, α-Glucosidase (A. niger) (Aspergillus niger, UniProt P56526).
T1 sequence (P56526 26-985): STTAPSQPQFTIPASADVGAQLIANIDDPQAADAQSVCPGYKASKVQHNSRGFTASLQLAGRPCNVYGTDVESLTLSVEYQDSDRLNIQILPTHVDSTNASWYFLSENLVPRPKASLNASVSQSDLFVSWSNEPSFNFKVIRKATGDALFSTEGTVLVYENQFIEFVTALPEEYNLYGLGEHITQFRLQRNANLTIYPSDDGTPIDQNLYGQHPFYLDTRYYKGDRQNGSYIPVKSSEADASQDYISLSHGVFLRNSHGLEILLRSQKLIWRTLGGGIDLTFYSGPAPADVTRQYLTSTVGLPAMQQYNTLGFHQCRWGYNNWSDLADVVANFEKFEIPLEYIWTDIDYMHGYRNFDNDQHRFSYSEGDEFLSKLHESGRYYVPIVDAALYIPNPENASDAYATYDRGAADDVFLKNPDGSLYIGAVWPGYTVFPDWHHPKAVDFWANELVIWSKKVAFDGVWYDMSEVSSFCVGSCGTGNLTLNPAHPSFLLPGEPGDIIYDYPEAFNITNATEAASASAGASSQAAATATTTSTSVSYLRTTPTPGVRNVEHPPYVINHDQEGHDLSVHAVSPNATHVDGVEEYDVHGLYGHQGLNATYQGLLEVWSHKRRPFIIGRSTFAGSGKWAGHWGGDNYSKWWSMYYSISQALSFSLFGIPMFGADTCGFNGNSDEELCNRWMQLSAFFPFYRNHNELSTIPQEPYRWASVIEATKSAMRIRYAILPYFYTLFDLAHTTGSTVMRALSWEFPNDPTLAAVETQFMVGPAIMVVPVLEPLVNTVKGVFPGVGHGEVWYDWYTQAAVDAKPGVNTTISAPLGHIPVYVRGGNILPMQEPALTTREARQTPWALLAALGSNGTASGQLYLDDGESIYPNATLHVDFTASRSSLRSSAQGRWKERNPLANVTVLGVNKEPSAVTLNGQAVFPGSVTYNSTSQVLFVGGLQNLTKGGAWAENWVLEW
In words: 4-nitrophenyl α-D-glucopyranoside hydrolysis, absorbance […] nm. The class given is biochemical.

Assay [3] concerns the target α-Glucosidase (B. stearoth.). The description is as above. In kind it is biochemical, Geobacillus stearothermophilus. The conditions noted are these: read-out: 6; pH 6.0, 37 °C, phosphate buffer, 10% DMSO; competitive.

Chain of β-Glucosidase (P. chrysosp.) (O74203 22-823): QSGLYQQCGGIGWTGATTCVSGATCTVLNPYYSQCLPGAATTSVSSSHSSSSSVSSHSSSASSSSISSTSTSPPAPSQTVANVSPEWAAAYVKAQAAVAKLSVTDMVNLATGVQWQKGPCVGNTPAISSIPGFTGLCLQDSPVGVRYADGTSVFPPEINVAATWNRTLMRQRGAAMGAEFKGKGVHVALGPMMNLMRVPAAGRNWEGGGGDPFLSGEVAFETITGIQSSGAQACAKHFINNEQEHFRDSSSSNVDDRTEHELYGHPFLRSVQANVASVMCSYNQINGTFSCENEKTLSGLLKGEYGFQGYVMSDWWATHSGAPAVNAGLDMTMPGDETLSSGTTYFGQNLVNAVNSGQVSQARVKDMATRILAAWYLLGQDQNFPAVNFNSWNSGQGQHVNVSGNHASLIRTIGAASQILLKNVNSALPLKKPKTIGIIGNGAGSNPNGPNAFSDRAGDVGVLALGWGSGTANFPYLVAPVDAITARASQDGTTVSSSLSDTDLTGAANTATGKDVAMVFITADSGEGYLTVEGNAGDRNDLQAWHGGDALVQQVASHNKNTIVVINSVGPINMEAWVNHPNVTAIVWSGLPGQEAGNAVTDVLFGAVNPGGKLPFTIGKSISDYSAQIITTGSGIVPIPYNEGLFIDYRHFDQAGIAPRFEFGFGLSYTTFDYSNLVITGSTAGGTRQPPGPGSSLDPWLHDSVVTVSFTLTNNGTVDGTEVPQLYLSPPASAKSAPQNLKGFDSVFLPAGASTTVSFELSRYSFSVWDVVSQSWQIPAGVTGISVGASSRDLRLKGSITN

For the compound `O=C1[C@H](O)[C@@H](O)[C@H](O)[C@@H](CO)N1Cc1c2ccccc2c(Cl)c2ccccc12` [compound 19, N-(10-Chloro-9-anthracenemethyl)-D-glucono-δ-lactam], the Ki in assay [1] (read-out: 19) amounted to 24.3 µM; in assay [2] it was 169 µM; at α-Glucosidase (A. niger) it was 14.4 µM.

`OC[C@@H]1[C@@H](O)[C@H](O)[C@@H](O)CN1CCc1c2ccccc2c(Cl)c2ccccc12` [compound 12, 1-(2-(10-Chloroanthracen-9-yl)ethyl)-1-deoxynojirimycin]: the Ki in assay [1] (read-out: 12) is 0.0062 µM.

Take `OC[C@@H]1[C@@H](O)[C@H](O)[C@@H](O)CN1CCCc1c2ccccc2c(Cl)c2ccccc12` [compound 15, 1-(3-(10-Chloroanthracen-9-yl)propyl)-1-deoxynojirimycin]: in assay [1] (read-out: 15), the Ki was found to be 0.0103 µM.

Regarding `OC[C@@H]1[C@@H](O)[C@H](O)[C@@H](O)CN1Cc1c2ccccc2c(Cl)c2ccccc12` [compound 6, N-(10-Chloro-9-anthracenemethyl)-1-deoxynojirimycin], the Ki was found to be 2.7 µM in assay [1] (read-out: 6, competitive); 1.04 µM on α-Glucosidase (A. niger); 93 µM in assay [3].
